Target: T1, O‐Mad2^LL (Homo sapiens, UniProt Q13257, A115G/DEL109-114/P116S/R117G)
T1 construct: His6-DoubleStrep-TEV (N); made in house
Assay: Time-resolved NMR: conversion / binding with O-Mad2^LL (loop-less)
Format: biochemical
Conditions: two-fold molar excess peptide, 25°C
Protocol: FIGURE 5 The dynamic β5‐αC loop and C‐terminal residues in O‐Mad2 modulate Mad2 conversion. The O‐ to C‐Mad2 conversion is slowed when the highly dynamic β5‐αC loop is truncated (O‐Mad2^LL) and eliminated in the absence of the C‐terminal ten residues (O‐Mad2^∆C10). Using the side chain resonances of Trp75 and Trp167 as reporters, Mad2 conversion was traced in a 24 h time course at 25°C. Cdc20^MIM‐111‐138 peptides were added at two‐fold molar excess to Mad2 (100 μM). Severe line broadening was observed during the conversion of O‐Mad2^LL, most likely due to dimerization of O‐Mad2^LL with the newly converted C‐Mad2^LL. NMR data for O‐Mad2^R133A with Cdc20^MIM‐111‐138 shown for comparison are from Fischer et al. ([2022]).
The cloning of human wild‐type Mad2 and the mutant Mad2^R133A by the USER® method (NEB) into the pRSFDuet‐1 vector (71341‐3, Sigma‐Aldrich) with a His6‐DoubleStrep‐TEV tag at its N‐terminus was described previously (Fischer et al., [2022]). For this study, Mad2 mutants were generated as follows. The Mad2^LL expression construct was generated from the wild‐type Mad2 expression vector (Fischer et al., [2022]) by replacing residues 109–117 (TAKDDSAPR) with GSG. Mad2^ΔC10 and Mad2^Δβ7/β8 were modified from wild‐type Mad2 expression construct by deleting residues 196–205 and 166–205, respectively. Mad2^LL/R133A was modified by substituting Ala for Arg133 from the Mad2^LL expression construct. Mad2^LL/ΔC10 was modified from Mad2^LL by deleting residues 196–205. Mad2^L13A/R133A was generated from the Mad2^R133A mutant. Site‐directed mutagenesis of Mad2 was completed using the QuikChangeTM Lightning Site‐Directed Mutagenesis Kit (Agilent) developed by Stratagene Inc. (La Jolla, CA).
All peptides were synthesized by Cambridge Research Biochemicals, UK. Peptides were dialyzed into 20 mM HEPES, pH 7.0, 100 mM NaCl, and 1 mM TCEP for NMR experiments. […]
Mad2LL (grey), Mad2∆C10 (green) and Mad2LL/∆C10 (purple). […] 15N{1H}‐ heteronuclear NOE were measured at 298 K. Regions that are highly dynamic are highlighted in yellow. e. […]

T1 sequence (Q13257 with tags, fused parts or gaps DEL109-114/A115G/P116S/R117G): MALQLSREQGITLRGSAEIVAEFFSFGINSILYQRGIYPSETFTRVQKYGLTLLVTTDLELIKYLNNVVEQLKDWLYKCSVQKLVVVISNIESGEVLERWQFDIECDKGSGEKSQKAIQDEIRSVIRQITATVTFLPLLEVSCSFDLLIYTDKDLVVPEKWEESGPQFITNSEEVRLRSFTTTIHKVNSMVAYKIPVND

Sequence: EHQKAWALNLNGFDVEEAKILRLSGKPQ [Cdc20^MIM‐111‐138, Cdc20^MIM peptide spanning Cdc20 residues 111–138]
- binding to Mad2^LL, early spectra (HSQC, spectra collected within 15 min): no binding
- slowing of conversion relative to O-Mad2^R133A with Cdc20^MIM-111-138 (O-Mad2^LL 100 μM): 8 times
- time for conversion of O-Mad2^LL to C-Mad2^LL:Cdc20^MIM (O-Mad2^LL 100 μM, Trp75/Trp167 reporters): ~ 250 min

Source: PMC11947619, “Molecular mechanism of Mad2 conformational conversion promoted by the Mad2‐interaction motif of Cdc20” (Protein Science : A Publication of the Protein Society, 2025)
